According to patent US20230105108A1, “COMPOUNDS FOR THE TREATMENT OF BACTERIAL INFECTIONS AND POTENTIATION OF ANTIBIOTICS” (GEORGIA STATE UNIVERSITY RESEARCH FOUNDATION, INC., priority 2019, published 2023):
≈ marks a conversion by molar mass, not a printed value. Where a name gives a salt, the structure may show the parent alone. Read-outs that look alike come from different tables or passages of the source.

Key:
E. coli (ATCC 25922) = test: MIC determination, sensitization fold and FIC index on E. coli; format: cell-based; settings: for MIC: Escherichia coli; for Sensitization: compound up to 25 μM; for MIC of AB with MD-124: MD-124 concentration 5 μg/ml
Experimental: (§1) Bacteria culture and MICs determination: Gram-negative bacteria were cultured in Mueller Hinton II cation-adjusted broth. Gram-positive bacteria were cultured in LB broth. Mycobacterium smegmatis was cultured in Middlebrook 7H9 Broth. MICs of antibiotics itself were determined by performing two-fold serial dilutions of antibiotics. MICs of antibiotics in the presence of bacterial sensitizers were determined by performing two-fold serial dilutions of antibiotics with or without a constant concentration of bacterial sensitizers. The MICs tests were performed on 96-well plates with a final volume of 200 μl Mueller Hinton II cation-adjusted broth in each well. Each well was inoculated with 5×10^5 CFU/ml bacteria and was incubated for 24 h at 37° C. with continuous shaking of 200 rpm. The bacterial density was then determined by OD600. Bacterial growth %=OD600 of antibiotic treatment group/OD600 of antibiotic non-treatment group. MICs was determined as the concentrations that inhibit more than 90% of bacteria growth.
(§2) Sensitization fold determination and FIC index calculations: Sensitization fold=MIC of antibiotic only/MIC of antibiotic with bacterial sensitizer. […] Since the MICs were determined by performing two-fold serial dilutions of antibiotic, so the sensitization fold can is the times of 2.
FIC index between compound a and b was calculated according to the formula below: […]
FIC≤0.5: Synergy; FIC between 0.5 and 1: Additive; FIC between 1 and […]: no interaction; FIC >4: antagonism.
(§3) Bacteria strains (as indicated in Table 5B) were cultured with rifampicin at various concentrations in the presence or absence of 10 μM of the indicated compound for 20 h at 37° C. The MIC, sensitization, cytotoxicity, and MIC on mycobacteria were tested according to methods described herein. […] The sensitization activities of compounds on MRSA were tested using rifampicin. The sensitization activities of compounds on E. coli were tested using rifampicin.

B. subtilis = test: MIC determination and sensitization fold on B. subtilis; format: cell-based; settings: B. subtilis; for Sensitization fold: erythromycin; for MIC: Bacillus subtilis, 24 h, compound alone, read-out: MIC
HEK293 cells = test: Cytotoxicity on mammalian cells (CCK-8), HEK293; format: cell-based; settings: HEK293 cell line; 24 h
Experimental: (§4) Cytotoxicity test of bacterial sensitizers on mammalian cells. Cell viability was assessed by using Cell Counting Kit-8 (CCK-8, Dojindo, Japan). HEK293 or NIH3T3 cells were seeded in a 96-well plate one day before the experiment to reach 80% confluency. Cells were then incubated with various concentration of bacterial sensitizers at 37° C. with 5% CO2 for 24 h, then 10 μL of CCK-8 solution was added to each well, and the plate was incubated for an additional at 37° C. 2 h with 5% CO2. The optical density at 450 nm was recorded by plate reader; and the results were calculated as a percentage of viability compared with the untreated control.

[1] = Cytotoxicity on mammalian cells (CCK-8), NIH3T3; format: cell-based; settings: mouse, NIH3T3 cells, 3T3 cell line
Experimental: as §4

MRSA (ATCC 33592) = test: MIC determination and sensitization fold on MRSA; format: cell-based, methicillin-resistant Staphylococcus aureus; settings: MRSA; rifampicin; compound at 12.5 μM
Experimental: Bacteria strains: E. coli (ATCC 25922), A. baumannii (ATCC 17978), K. pneumoniae (43816), S. maltophilia (ATCC 31559), S. typhimurium (ATCC 14028), C. werkmanii (ATCC 51114), S. aureus (ATCC 12600) and methicillin-resistant Staphylococcus aureus (MRSA, ATCC 33592) strains were purchased from ATCC. NR698 was provided.
as §1, §2, §3

[2] = Cytotoxicity on mammalian cells (CCK-8), HEK293; format: cell-based; settings: human, HEK293 cells; HEK293 cell line; 24 h
Experimental: as §4

[3] = Cytotoxicity in H9c2 cells (CCK-8); format: cell-based; settings: rat, H9c2 cells; H9c2 cell line
Experimental: The cytotoxicity in H9c2 (ATCC®CRL-1446™) cells was also determined. The H9c2 cells were maintained in DMEM (Dulbecco's Modified Eagle's Medium) supplemented with 10% fetal bovine serum (MidSci; S01520HI) and 1% penicillin-streptomycin (Sigma-Aldrich; P4333) at 37° C. with 5% CO2. The H9c2 cells were seeded in 96-well plate one day before the experiment. Different concentrations of di-amidine compounds were added into the H9c2 cells. The cells were then incubated with the compounds for 24 hours at 37° C. with 5% CO2. The cell viability was tested by the CCK-8. Specifically, after 24 hour incubation, 10 μL CCK-8 was added to each well. After 3 hours incubation at 37° C., the absorbance at 450 nm was recorded by a plate reader.

[4] = system: NDM-1 expressing E. coli strain; test: microbe, parasite or virus in culture; format: cell-based
[5] = system: A. baumannii (ATCC 17978); test: MIC, sensitization fold and FIC index on A. baumannii; format: cell-based; settings: A. baumannii towards the antibiotic
[6] = ATCC25922, 24 h, E. coli, compound alone, read-out: MIC
[7] = E. coli towards the antibiotic, MD-124 5 μg/ml
[8] = ATCC25922, 24 h, E. coli (wild type), antibiotic alone, read-out: MIC of AB only

Row | Compound | MIC (E. coli (ATCC 25922); [6]) [µM] | Sensitization fold (B. subtilis; compound at 12 μM) | MIC (B. subtilis) [µM] | CC50 at 24 h [1] [µM] | CC50 at 24 h [2] [µM] | Sensitization fold (E. coli (ATCC 25922); [7]) [fold] | MIC of AB with MD-124 (E. coli (ATCC 25922); E. coli) [µg/mL] | MIC (E. coli (ATCC 25922); [8]) [µg/mL] | Sensitization fold with 5 μg/ml MD-124 [5] [fold] | also measured
1 | COc1cc(C(=N)N)ccc1OCc1cc(COc2ccc(C(=N)N)cc2OC)cc(C(C)(C)C)c1 [MD-114, 1,3-Bis {[4-amidino-2-methoxy)-phenoxymethyl]}-5-(tert-butyl)benzene dihydrochloride] | 100 | 8-fold at 12 μM | 25 | 50 | – | – | – | – | – | Sensitization fold (E. coli (ATCC 25922); E. coli, rifampicin, compound at 12.5 μM): 8-fold at 12.5 μM; CC50 (HEK293 cells): 100 µM
2 | Cc1cc(COc2cccc(C(=N)N)c2)cc(COc2cccc(C(=N)N)c2)c1 [MD-116, 3,3′-(((5-methyl-1,3-phenylene)bis(methylene))bis(oxy))dibenzimidamide dihydrochloride] | – | 32-fold at 12 μM | – | > 100 | > 100 | – | – | – | – | Sensitization fold (E. coli (ATCC 25922); E. coli, rifampicin, compound at 25 μM): 8-fold at 25 μM; MIC (E. coli (ATCC 25922); ATCC25922, 24 h): 100 µM; Sensitization fold (MRSA (ATCC 33592)): 4-fold at 12.5 μM.
3 | Cc1cc(CSc2ccc(C3=NCCN3)cc2)cc(CSc2ccc(C3=NCCN3)cc2)c1 [MD-118, 1,3-Bis {(4-(2-imidazolino))-thiophenoxymethyl}-5-methylbenzene dihydrochloride] | > 50 | – | > 25 | 12.5 | 25 | – | – | – | – | Sensitization (E. coli (ATCC 25922); E. coli, rifampicin): No effect up to 25 μM.; Sensitization fold (B. subtilis; compound at 3 μM): 4-fold at 3 μM; Sensitization fold (B. subtilis; compound at 6 μM): 16-fold at 6 μM,
4 | Cc1cc(COc2ccc(C3=NCCN3)cc2)cc(COc2ccc(C3=NCCN3)cc2)c1 [MD-129, 1,3-Bis {(4-(2-imidazolino))-phenoxymethyl}-5-methylbenzene dihydrochloride] | > 50 | 4-fold at 12 μM | > 50 | 25 | 50 | – | – | – | – | CC50 at 24 h [3]: 25 µM; Sensitization fold (E. coli (ATCC 25922); 10 μM compound, rifampicin as the antibiotic (Table 6)): 1 fold; Sensitization (E. coli (ATCC 25922); E. coli, rifampicin): No effect up to 25 μM; sensitization activity (E. coli (ATCC 25922); rifampicin, compound at up to 10 μM): no sensitization activity
5 | C[C@@H](O)[C@H]1C(=O)N2C(C(=O)O)=C(S[C@@H]3CN[C@H](C(=O)N(C)C)C3)[C@H](C)[C@H]12 [Meropenem, reference compound] | – | – | – | – | – | 1 | 0.063 | 0.063 | – | MIC (E. coli (ATCC 25922); ATCC25922, antibiotic alone (Table 14), read-out: MIC on wild-type E.coli): 0.03 µg/mL; MIC ([4]; Escherichia coli, antibiotic alone (Table 14), read-out: MIC on NDM-1 over-expression E. coli): 12.5 µg/mL (≈ 32.6 µM); Sensitization fold with 5 μg/ml MD-124 ([4]; NDM-1 expressing E. coli towards the antibiotic): 2 fold
6 | CCOc1ccc2ccccc2c1C(=O)N[C@@H]1C(=O)N2[C@@H]1SC(C)(C)[C@@H]2C(=O)O [Nafcillin, reference compound] | – | – | – | – | – | >4 | 75 | > 300 | 2 | –
7 | CN(C)[C@@H]1C(O)=C(C(N)=O)C(=O)[C@@]2(O)C(O)=C3C(=O)c4c(O)cccc4[C@@](C)(O)[C@H]3C[C@@H]12 [Tetracycline, reference compound] | – | – | – | – | – | 2 | 0.6 | 1.2 | 2 | Sensitization fold with 5 μg/ml MD-124 [4]: 4 fold
8 | COc1cc(Cc2cnc(N)nc2N)cc(OC)c1OC [Trimethoprim, reference compound] | – | – | – | – | – | 2 | 1.25 | 2.5 | 2 | –
